The results in this text go back to BindingDB's records for doi:10.1007/s00213-006-0490-4 (Purdue University, 2006).

Some targets named below: Mu-type opioid receptor (Homo sapiens, UniProt P35372); Histamine H4 receptor (Homo sapiens, UniProt Q9H3N8); Histamine H1 receptor (Homo sapiens, UniProt P35367); Histamine H2 receptor (Homo sapiens, UniProt P25021); D(2) dopamine receptor (Homo sapiens, UniProt P14416); D(3) dopamine receptor (Rattus norvegicus, UniProt P19020); D(1A) dopamine receptor (Homo sapiens, UniProt P21728); D(1B) dopamine receptor (Homo sapiens, UniProt P21918); Histamine H3 receptor (Cavia porcellus, UniProt Q9JI35).

Assay [1] has as its target 5-hydroxytryptamine receptor 2A (Homo sapiens, UniProt P28223).
Assay [2] concerns the target Delta-type opioid receptor (Homo sapiens, UniProt P41143).
In assay [3] the target is 5-hydroxytryptamine receptor 6 (Homo sapiens, UniProt P50406).
Assay [4] addresses Kappa-type opioid receptor (Homo sapiens, UniProt P41145).
The target of assay [5] is 5-hydroxytryptamine receptor 1E (Homo sapiens, UniProt P28566).
Assay [6] deals with Beta-1 adrenergic receptor (Rattus norvegicus, UniProt P18090).
Assay [7] concerns the target 5-hydroxytryptamine receptor 5A (Homo sapiens, UniProt P47898).
The target of assay [8] is 5-hydroxytryptamine receptor 2C (Rattus norvegicus, UniProt P08909).
The target in assay [9] is Alpha-2B adrenergic receptor (Homo sapiens, UniProt P18089).
Assay [10] addresses Alpha-2C adrenergic receptor (Homo sapiens, UniProt P18825).
Assay [11] addresses Muscarinic acetylcholine receptor M2 (Homo sapiens, UniProt P08172).
Assay [12] has as its target Gamma-aminobutyric acid receptor subunit alpha-1 (Rattus norvegicus, UniProt P62813).
In assay [13] the target is Muscarinic acetylcholine receptor M5 (Homo sapiens, UniProt P08912).
Assay [14] concerns the target Beta-2 adrenergic receptor (Rattus norvegicus, UniProt P10608).
Assay [15] addresses Alpha-2A adrenergic receptor (Homo sapiens, UniProt P08913).

5-hydroxytryptamine receptor 6, sequence (P50406 whole entry): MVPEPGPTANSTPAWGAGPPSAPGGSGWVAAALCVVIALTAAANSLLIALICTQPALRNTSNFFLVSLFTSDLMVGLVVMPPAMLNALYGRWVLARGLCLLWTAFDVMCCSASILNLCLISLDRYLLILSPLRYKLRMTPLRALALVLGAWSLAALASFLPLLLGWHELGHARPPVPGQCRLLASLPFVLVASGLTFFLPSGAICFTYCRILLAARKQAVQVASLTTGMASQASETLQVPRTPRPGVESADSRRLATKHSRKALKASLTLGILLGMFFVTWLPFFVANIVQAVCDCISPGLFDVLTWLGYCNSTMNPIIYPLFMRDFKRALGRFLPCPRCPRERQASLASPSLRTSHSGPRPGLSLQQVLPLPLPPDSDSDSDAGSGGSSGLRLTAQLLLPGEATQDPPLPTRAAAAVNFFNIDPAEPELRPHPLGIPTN
Beta-2 adrenergic receptor, sequence (P10608 whole entry): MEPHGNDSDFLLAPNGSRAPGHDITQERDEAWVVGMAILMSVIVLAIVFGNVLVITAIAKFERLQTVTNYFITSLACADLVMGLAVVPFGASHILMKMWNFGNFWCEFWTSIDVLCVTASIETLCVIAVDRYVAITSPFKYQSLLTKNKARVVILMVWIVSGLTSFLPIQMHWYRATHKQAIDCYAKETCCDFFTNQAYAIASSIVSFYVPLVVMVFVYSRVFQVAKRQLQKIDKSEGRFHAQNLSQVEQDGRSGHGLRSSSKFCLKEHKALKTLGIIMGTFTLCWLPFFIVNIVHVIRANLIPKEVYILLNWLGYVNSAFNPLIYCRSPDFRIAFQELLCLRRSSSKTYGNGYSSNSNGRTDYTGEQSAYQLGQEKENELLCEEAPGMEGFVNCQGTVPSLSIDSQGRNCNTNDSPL
Muscarinic acetylcholine receptor M5, sequence (P08912 whole entry): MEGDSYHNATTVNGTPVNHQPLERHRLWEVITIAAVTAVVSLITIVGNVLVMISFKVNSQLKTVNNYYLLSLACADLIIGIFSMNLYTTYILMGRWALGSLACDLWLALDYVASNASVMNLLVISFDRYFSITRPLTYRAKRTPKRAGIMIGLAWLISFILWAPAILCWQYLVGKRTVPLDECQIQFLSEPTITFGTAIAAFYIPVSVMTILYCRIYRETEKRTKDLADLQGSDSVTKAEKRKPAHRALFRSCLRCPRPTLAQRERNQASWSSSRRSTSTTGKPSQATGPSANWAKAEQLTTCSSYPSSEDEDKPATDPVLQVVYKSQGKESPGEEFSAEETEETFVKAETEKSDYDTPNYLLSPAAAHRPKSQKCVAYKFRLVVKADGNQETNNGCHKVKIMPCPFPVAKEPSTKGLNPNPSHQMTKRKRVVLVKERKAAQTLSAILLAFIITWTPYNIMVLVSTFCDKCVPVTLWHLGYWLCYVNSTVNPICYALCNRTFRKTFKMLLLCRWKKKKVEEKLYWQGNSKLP
Delta-type opioid receptor, sequence (P41143 whole entry): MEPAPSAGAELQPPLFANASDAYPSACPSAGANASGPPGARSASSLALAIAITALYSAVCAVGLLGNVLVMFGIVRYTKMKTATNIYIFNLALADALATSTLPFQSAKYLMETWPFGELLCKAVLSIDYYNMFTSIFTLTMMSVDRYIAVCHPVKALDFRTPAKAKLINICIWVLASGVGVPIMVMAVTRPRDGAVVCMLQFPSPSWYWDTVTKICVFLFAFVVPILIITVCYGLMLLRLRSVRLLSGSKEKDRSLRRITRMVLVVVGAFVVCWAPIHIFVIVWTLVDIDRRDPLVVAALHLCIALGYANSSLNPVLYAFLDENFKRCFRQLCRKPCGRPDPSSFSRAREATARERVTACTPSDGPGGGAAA
Alpha-2C adrenergic receptor, sequence (P18825 whole entry): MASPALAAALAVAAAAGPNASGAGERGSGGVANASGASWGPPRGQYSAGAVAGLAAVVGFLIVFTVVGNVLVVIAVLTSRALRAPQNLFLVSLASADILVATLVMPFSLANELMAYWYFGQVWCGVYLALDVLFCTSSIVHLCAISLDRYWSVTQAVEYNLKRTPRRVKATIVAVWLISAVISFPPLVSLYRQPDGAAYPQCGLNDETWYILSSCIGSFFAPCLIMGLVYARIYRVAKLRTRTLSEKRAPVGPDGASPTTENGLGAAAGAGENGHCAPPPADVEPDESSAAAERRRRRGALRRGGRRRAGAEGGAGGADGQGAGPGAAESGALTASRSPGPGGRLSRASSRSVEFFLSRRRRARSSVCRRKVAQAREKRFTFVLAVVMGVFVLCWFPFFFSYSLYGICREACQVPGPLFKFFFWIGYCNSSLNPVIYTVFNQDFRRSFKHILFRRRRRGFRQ
Gamma-aminobutyric acid receptor subunit alpha-1, sequence (P62813 whole entry): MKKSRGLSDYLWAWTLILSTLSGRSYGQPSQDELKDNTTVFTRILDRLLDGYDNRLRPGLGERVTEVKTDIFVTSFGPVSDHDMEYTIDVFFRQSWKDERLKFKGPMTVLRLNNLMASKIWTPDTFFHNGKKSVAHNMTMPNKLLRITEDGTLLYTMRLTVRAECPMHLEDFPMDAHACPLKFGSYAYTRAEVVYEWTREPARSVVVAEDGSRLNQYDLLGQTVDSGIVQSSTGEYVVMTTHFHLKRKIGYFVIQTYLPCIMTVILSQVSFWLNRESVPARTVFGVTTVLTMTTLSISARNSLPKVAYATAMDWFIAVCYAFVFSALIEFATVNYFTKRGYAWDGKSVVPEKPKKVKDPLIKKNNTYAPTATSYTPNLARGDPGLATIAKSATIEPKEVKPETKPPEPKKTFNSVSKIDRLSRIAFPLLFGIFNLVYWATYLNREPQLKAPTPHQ
5-hydroxytryptamine receptor 2C, sequence (P08909 whole entry): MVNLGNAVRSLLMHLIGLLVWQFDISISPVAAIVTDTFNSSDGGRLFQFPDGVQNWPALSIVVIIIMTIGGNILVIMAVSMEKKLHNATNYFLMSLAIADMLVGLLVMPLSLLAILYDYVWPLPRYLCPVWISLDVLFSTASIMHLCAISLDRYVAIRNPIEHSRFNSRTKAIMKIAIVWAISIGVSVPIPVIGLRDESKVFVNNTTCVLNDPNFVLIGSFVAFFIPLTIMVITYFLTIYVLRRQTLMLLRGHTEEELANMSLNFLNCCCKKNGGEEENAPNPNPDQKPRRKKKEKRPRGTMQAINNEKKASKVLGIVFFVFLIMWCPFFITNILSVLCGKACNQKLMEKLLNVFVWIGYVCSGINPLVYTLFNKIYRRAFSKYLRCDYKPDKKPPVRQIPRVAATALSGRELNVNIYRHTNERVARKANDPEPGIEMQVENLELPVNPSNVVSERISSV
Beta-1 adrenergic receptor, sequence (P18090 whole entry): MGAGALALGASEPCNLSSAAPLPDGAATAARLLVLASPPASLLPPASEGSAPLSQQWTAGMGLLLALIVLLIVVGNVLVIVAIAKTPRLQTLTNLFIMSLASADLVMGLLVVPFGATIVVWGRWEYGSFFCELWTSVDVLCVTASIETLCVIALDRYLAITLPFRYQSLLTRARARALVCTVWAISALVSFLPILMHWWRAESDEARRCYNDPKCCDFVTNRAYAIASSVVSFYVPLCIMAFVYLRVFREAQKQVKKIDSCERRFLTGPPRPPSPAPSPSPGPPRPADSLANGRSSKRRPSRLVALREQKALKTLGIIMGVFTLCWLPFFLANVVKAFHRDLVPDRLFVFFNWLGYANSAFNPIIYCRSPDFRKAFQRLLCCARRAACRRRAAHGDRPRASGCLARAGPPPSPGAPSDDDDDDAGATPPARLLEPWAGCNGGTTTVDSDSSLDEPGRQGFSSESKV
Mu-type opioid receptor, sequence (P35372 whole entry): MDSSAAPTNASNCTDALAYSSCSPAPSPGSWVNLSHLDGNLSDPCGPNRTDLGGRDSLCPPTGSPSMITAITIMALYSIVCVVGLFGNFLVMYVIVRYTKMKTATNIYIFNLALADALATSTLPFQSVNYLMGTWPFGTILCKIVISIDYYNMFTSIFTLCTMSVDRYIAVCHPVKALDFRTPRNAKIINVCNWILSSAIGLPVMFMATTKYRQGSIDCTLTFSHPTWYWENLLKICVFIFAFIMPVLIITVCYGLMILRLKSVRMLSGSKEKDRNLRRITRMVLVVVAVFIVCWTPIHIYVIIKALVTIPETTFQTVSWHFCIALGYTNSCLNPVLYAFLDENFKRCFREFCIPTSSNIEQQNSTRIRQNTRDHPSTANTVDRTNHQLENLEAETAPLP
Histamine H2 receptor, sequence (P25021 whole entry): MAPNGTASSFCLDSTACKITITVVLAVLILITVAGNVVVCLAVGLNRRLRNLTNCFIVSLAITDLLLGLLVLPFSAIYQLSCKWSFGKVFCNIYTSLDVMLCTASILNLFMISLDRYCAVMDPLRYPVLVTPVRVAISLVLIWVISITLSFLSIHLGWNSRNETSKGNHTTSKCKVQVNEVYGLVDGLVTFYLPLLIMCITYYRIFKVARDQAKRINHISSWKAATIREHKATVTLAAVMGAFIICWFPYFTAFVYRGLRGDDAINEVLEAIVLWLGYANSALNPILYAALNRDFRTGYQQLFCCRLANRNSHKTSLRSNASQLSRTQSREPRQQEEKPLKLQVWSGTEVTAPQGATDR
5-hydroxytryptamine receptor 5A, sequence (P47898 whole entry): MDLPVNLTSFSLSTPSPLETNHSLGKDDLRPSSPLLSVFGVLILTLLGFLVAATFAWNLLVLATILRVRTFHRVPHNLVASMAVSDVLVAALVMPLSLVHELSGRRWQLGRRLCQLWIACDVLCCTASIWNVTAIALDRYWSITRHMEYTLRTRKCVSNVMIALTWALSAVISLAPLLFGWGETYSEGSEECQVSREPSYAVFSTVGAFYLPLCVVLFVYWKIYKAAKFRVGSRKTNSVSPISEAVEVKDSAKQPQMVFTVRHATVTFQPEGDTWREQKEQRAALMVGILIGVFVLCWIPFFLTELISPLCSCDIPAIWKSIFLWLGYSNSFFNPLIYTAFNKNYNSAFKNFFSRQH

Take `COc1ccccc1N1CCN(CCN(C(=O)C2CCCCC2)c2ccccn2)CC1`: the inhibitory constant (Ki) in [1] is 6.26 µM; in assay [2], greater than 10 µM; in assay [3], greater than 10 µM; in assay [4], 0.412 µM; on Mu-type opioid receptor it was greater than 10 µM; on Histamine H4 receptor, greater than 10 µM. Further, the inhibition constant (Ki) is greater than 10 µM at Histamine H1 receptor; greater than 10 µM at Histamine H2 receptor; greater than 10 µM in assay [5]; greater than 10 µM in assay [6]; 0.94 µM at D(2) dopamine receptor; 0.37 µM at D(3) dopamine receptor. Further, the Ki on D(1A) dopamine receptor is greater than 10 µM; in [7], greater than 10 µM; in assay [8], greater than 10 µM; on D(1B) dopamine receptor it was greater than 10 µM; in [9], greater than 10 µM; in assay [10] it was 2.57 µM. Moreover, the inhibition constant Ki (in assay [11]; in assay [12]; on Histamine H3 receptor; in assay [13]; in assay [14]; in assay [15]) was greater than 10 µM each time.

A word on the Ki: it is a measure of affinity in units of concentration, obtained from inhibition or displacement. Read a high Ki as weaker binding.
